Assay results published in publication PMC6321136, “Combined In Vitro Studies and in Silico Target Fishing for the Evaluation of the Biological Activities of Diphylleia cymosa and Podophyllum hexandrum” (Molecules, 2018).
Like-named read-outs stand apart in the source and are kept apart here.

Experiments:
[1] = test system: Cytotoxicity, A549; design: method as in PubChem Bioassay AID 371; details: ref PubChem Bioassay AID 371; cited from earlier work
[2] = test system: Antagonist, androgen receptor (AR); design: method as in PubChem Bioassay AID 1259243; details: ref PubChem Bioassay AID 1259243; cited from earlier work
[3] = test system: Cytotoxicity, Agonist, endoplasmic reticulum stress response; design: method as in PubChem Bioassay AID 1159517; details: ref PubChem Bioassay AID 1159517; cited from earlier work
[4] = test system: Agonist, thyroid stimulating hormone receptor (TSHR); design: method as in PubChem Bioassay AID 1224843; details: ref PubChem Bioassay AID 1224843; cited from earlier work
[5] = test system: Angiogenesis model; design: method as in PubChem Bioassay AID 1117337; details: ref PubChem Bioassay AID 1117337; cited from earlier work
[6] = test system: Antagonist, androgen receptor (AR); design: method as in PubChem Bioassay AID 743035; details: ref PubChem Bioassay AID 743035; cited from earlier work
[7] = design: method as in Dar et al. [63]; details: ref Dar et al. [63]; cited from earlier work
[8] = test system: Anti-Inflammatory model; design: method as in PubChem Bioassay AID 489033; details: ref PubChem Bioassay AID 489033; cited from earlier work
[9] = test system: AP1 Signaling Pathway; design: method as in PubChem Bioassay AID 357; details: ref PubChem Bioassay AID 357; cited from earlier work
[10] = test system: Agonist, Histone H2A.x; design: method as in PubChem Bioassay AID 1224896; details: ref PubChem Bioassay AID 1224896; cited from earlier work
[11] = test system: Cell Cycle Modulation (counterscreen); design: method as in PubChem Bioassay AID 1117350; details: ref PubChem Bioassay AID 1117350; cited from earlier work
[12] = test system: Cytotoxicity, Agonist, Histone H2A.x; design: method as in PubChem Bioassay AID 1224847; details: ref PubChem Bioassay AID 1224847; cited from earlier work
[13] = test system: Antagonist, peroxisome proliferator-activated receptor delta (PPARd); design: method as in PubChem Bioassay AID 743215; details: ref PubChem Bioassay AID 743215; cited from earlier work
[14] = test system: Activators, heat shock response; design: method as in PubChem Bioassay AID 743210; details: ref PubChem Bioassay AID 743210; cited from earlier work
[15] = test system: Anticancer, Leukemia; design: method as in PubChem Bioassay AID 258; details: ref PubChem Bioassay AID 258; cited from earlier work
[16] = test system: Antagonist, NFkB Signaling Pathway; design: method as in PubChem Bioassay AID 624479; details: ref PubChem Bioassay AID 624479; cited from earlier work
[17] = test system: Antagonist, androgen receptor (AR); design: method as in PubChem Bioassay AID 1259247; details: ref PubChem Bioassay AID 1259247; cited from earlier work
[18] = test system: Cytotoxicity, Antagonist, androgen receptor (AR); design: method as in PubChem Bioassay AID 743033; details: ref PubChem Bioassay AID 743033; cited from earlier work
[19] = test system: Agonist, Histone H2A.x; design: method as in PubChem Bioassay AID 1224845; details: ref PubChem Bioassay AID 1224845; cited from earlier work
[20] = test system: Anticancer, Sarcoma; design: method as in PubChem Bioassay AID 292; details: ref PubChem Bioassay AID 292; cited from earlier work
[21] = test system: Agonist, thyroid receptor (TR); design: method as in PubChem Bioassay AID 743066; details: ref PubChem Bioassay AID 743066; cited from earlier work
[22] = test system: Enterohemorrhagic E. coli ATCC 43895-EHEC; assay: Antibacterial microdilution assay; type: cell-based, Escherichia coli
[23] = test system: Agonist, constitutive androstane receptor (CAR); design: method as in PubChem Bioassay AID 1224839; details: ref PubChem Bioassay AID 1224839; cited from earlier work
[24] = DPPH radical scavenger activity
Procedure: The evaluation of the antioxidant activity using the 2,2-diphenyl-1-picrylhydrazyl radical (DPPH) was performed according to the method proposed by Mensor et al., with adaptations. The samples were dissolved in MeOH at concentrations ranging from 1.0 to 200 μg/mL. A portion of 250 μL of each sample was added to a 96-well microplate. MeOH and pyrogallol (50 µg/mL) were employed as negative and positive controls, respectively. Then, 100 μL of either MeOH (blank wells) or DPPH solution (120 μg/mL, reaction wells) was added to the microplate. The reading was performed on a microplate reader (EL808IU-Biotek model, Biotek, Winooski, VT, USA), at 5 min intervals for a total of 45 min, at 515 nm. The percentage of radical scavenging activity (%RSA) was calculated using the following equation: % RSA = ((AC − AS)/AC) × 100, where AC is the absorbance of control and AS is the absorbance of samples taken at 35 min. The results were expressed in EC50 (effective concentration for 50% capture of the radicals) determined by non-linear regression using GraphPad Prism, version 6.0.

[25] = test system: Anticancer, Yes1 kinase; design: method as in PubChem Bioassay AID 686947; details: ref PubChem Bioassay AID 686947; cited from earlier work

For `COc1cc([C@@H]2c3cc4c(cc3[C@H](O)[C@H]3COC(=O)[C@H]23)OCO4)cc(OC)c1OC` [Podophyllotoxin, podophyllotoxin], the “Exper. Activity” value [1] is listed as “Active”, the “Exper. Activity” value [2] is listed as “Inactive” and the “Exper. Activity” value [3] is listed as “Inactive”. For the same compound, the “Exper. Activity” value [4] was “Inactive”, the “Exper. Activity” value [5] was “Active” and the “Exper. Activity” value [6] was “Active”. For the same compound, the “IC50 TBARS lipid peroxidation” value [7] was “higher than 250 μg/mL”, the “Exper. Activity” value [8] was “Inactive” and the “Exper. Activity” value [9] was “Inactive”. The “Exper. Activity” value [10] was “Inactive”, the “Exper. Activity” value [11] was “Active” and the “Exper. Activity” value [12] was “Inactive”. The “Exper. Activity” value [13] was “Inactive”, the “Exper. Activity” value [14] was “Inactive” and the “Exper. Activity” value [15] was “Inactive”. For the same compound, the “Exper. Activity” value [16] was “Inactive”, the “Exper. Activity” value [17] was “Inactive” and the “Exper. Activity” value [18] was “Inactive”. The “Exper. Activity” value [19] was “Inactive”, the “Exper. Activity” value [20] was “Active” and the “Exper. Activity” value [21] was “Inactive”. For the same compound, the “EHEC E. coli Mean ± SD (percentage of inhibition of microbial growth)” value ([22]; 250 µg/mL) was “No antibacterial activity”, the inhibition at 250 µg/mL ([22]; Escherichia coli, ATCC43895, read-out: EHEC E. coli Mean ± SD (percentage of inhibition of microbial growth)) was 33 ± 7.76% and the “Exper. Activity” value [23] was “Inactive”. The “Antioxidant Activity (IC50-µg/mL) DPPH Radical Sequestration” value [24] was over 200 µg/mL and the “Exper. Activity” value [25] was “Inactive”.
